As a reminder, the EC50 is the concentration giving half of the maximal effect. One may read the IC50 as the midpoint of a concentration-inhibition curve.

Consider two compounds from patent US9464064B2, “HCV helicase inhibitors and methods of use thereof” (University of Kansas, priority 2011, dated 2016).

Molecules are shown by their SMILES. Where two headings read alike, the source gives them in different places.

One data set concerns Huh-7.5 cells. Nature of the data set: Cell viability assay ([…]-GLO). Format: cell-based, human. To be noted: 10 μM. The procedure, abridged:
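Huh-7.5 cells exposed to compound for 72 hours, washed, then lysed in a 1:1 mix of growth medium and […]-GLO reagent. After 30 minutes at 23° C., luminescence was read for 1 second as a measure of viability.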

The test system of another data set is MBHA DNA substrate. Nature of the data set: Modified FID assay, SYBR Green I. It is filed as binding. To be noted: SYBR Green; for EC50: read-out: FID (SG) EC50 (converted). The procedure, abridged:
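Fluorescent intercalator displacement with SYBR Green I (0.68 μM) in place of ethidium bromide and MBHA DNA at 0.32 μM. Normalized data fit to concentration-response equation; EC50 given as mean ± SD of three independent triplicate titrations.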

In data set [1] the target is T1, HCV NS3 helicase NS3h_1b(con1) (Hepatitis C virus genotype 1b, UniProt Q9WMX2).
T1 construct: truncated C-terminally His-tagged NS3 proteins lacking the N-terminal protease, called NS3h; His-tag (C); made in house
Nature of the data set: biochemical. Format: biochemical, hepatitis C virus genotype 1b(con1). The procedure, abridged:
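Molecular beacon helicase assay with His-tagged recombinant NS3 and a Cy5/IBRQ-labelled partially duplex DNA substrate (25 bp) or Tye665-labelled RNA substrate (19 bp). Reactions started with 1 mM ATP. Screening read fluorescence before and 30 min after ATP (ex 643/em 670 nm). For IC50, 5% v/v DMSO was present, initial velocities came from first-order decay fits, and a Hill equation was applied.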

In data set [2] the target is T2, E. coli SSB-Cy5-dT15 complex (Escherichia coli, UniProt P0AGE0).
T2 construct: purchased Promega
Briefly: Escherichia coli SSB Cy5-dT15 binding assay (fluorescence polarization). To be noted: for IC50: disruption of Cy5-dT15-SSB complex, read-out: Cy5-dT15-SSB Binding IC50; for inhibition at 100 µM: read-out: SSB % Displaced @ 100 μM; for EC50: read-out: SSB EC50. The procedure, abridged: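 Fluorescence polarization with 5 nM Cy5-dT15 and 20 nM E. coli SSB in 25 mM MOPS pH 7.5, 1.25 mM MgCl2, BSA, Tween 20, DTT. Screening at 1% DMSO; IC50 runs at 5% DMSO. Excitation 635 nm, parallel and perpendicular emission at 667 nm.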

The mark [3] stands for this setting: genotype 1b (con1), read-out: Target Potency MBHA (IC50 avg., μM) 1b (con1).
Where [4] appears, read: standard HCV helicase MBHA (Table 9), read-out: DNA Unwinding IC50.

T2 sequence (P0AGE0 2-178, one chain of several): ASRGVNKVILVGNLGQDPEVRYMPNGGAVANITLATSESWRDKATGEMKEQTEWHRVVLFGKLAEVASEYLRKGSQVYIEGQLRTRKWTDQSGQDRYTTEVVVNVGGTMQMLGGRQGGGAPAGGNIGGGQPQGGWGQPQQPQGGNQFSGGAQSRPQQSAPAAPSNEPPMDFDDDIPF
T1 sequence (Q9WMX2 1192-1657): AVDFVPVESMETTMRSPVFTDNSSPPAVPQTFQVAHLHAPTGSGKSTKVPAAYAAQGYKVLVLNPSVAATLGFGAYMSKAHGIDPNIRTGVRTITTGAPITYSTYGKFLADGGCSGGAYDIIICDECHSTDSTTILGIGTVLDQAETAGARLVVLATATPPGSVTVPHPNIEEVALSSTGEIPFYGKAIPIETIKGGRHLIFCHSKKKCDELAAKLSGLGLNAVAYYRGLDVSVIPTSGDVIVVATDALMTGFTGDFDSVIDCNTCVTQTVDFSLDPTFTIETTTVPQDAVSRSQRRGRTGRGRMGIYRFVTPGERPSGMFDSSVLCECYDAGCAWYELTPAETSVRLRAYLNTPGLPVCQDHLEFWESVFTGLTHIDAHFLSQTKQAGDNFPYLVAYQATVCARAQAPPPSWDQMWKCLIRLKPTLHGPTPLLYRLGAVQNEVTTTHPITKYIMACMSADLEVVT

Take `Cc1ccc2nc(-c3ccc4nc(-c5ccc(NC(=O)Nc6ccc(Cl)cc6)cc5)sc4c3)sc2c1S(=O)(=O)O` [Compound 54]: the “Cell Viability (% @ 10 μM)” value with Huh-7.5 cells is on record as 98 ± 1%. For the same compound, in the data set on MBHA DNA substrate, the “FID (SG) % Displaced @ 100 μM” value is given as 74 ± 4% and the EC50 is 8 µM. The IC50 in data set [1] (setting [3]) came out at 3.6 ± 0.9 µM. For the same compound, the IC50 in data set [1] (setting [4]) came to 4 ± 1 µM. In data set [2], the concentration for half-maximal inhibition (IC50) came out at 5 ± 1 µM, the inhibition at 100 µM came out at 94% and the EC50 came out at 5 µM.

Take `COc1ccc(NC(=O)Nc2ccc(-c3nc4ccc(-c5nc6ccc(C)c(S(=O)(=O)O)c6s5)cc4s3)cc2)cc1` [Compound 55]: the “Cell Viability (% @ 10 μM)” value with Huh-7.5 cells was determined as 99 ± 9%. In the data set on MBHA DNA substrate, the “FID (SG) % Displaced @ 100 μM” value came to 55 ± 6% and the EC50 was 73 µM. Besides, in data set [1] (setting [3]), the IC50 came out at 4.8 ± 2 µM. Besides, the half-maximal inhibitory concentration (IC50) in data set [1] (setting [4]) is 5 ± 2 µM. Further, in data set [2], the IC50 is 4 ± 1 µM, the inhibition at 100 µM is 95% and the EC50 is 4 µM.
